35 compounds from US10450263B2, “Benzo annulenes as antiviral agents” (Southern Research Institute, priority 2017, dated 2019) can be followed below.

A short description of data set [1]: CC50 reported alongside the CHIKV antiviral assay (cytotoxicity). Type of data set: cell-based. The note with it: cell line not given. An excerpt: (§1) The compounds below in Table 1 were synthesized with methods identical or analogous to those described herein. The requisite starting materials were commercially available, described in the literature, or readily synthesized by one skilled in the art of organic synthesis.

In the next data set the test system is Chikungunya virus. As to the kind of experiment: Evaluation of antiviral activity against Chikungunya virus (EC90). The data set is classed as cell-based.
From the text: EC90 refers to the concentration of the compound that is required for 90% antagonism or inhibition of CHIKV. EC90 also refers to the concentration of a substance that is required for 90% antagonism or inhibition of CHIKV in vivo.
as §1

Where [2] appears, read: read-out: EC90 (μM) CHIKV, concentration required for 90% inhibition of CHIKV.
Where [3] appears, read: Chikungunya virus, read-out: EC90 (μM) CHIKV, concentration required for 90% inhibition of CHIKV.

Each structure is given as a SMILES string. Like-named read-outs stand apart in the source and are kept apart here. Bounds are passed on as bounds.

`COc1cc2c(cc1NC(=O)c1ccc(C(C)(C)C)cc1)CCCCC2` [Compound 3, 4-(tert-Butyl)-N-(3-methoxy-6,7,8,9-tetrahydro-5H-benzo[7]annulen-2-yl)benzamide]: the 50% cytotoxic concentration (CC50) in data set [1] is more than 30 µM.
The compound `COc1cc2c(cc1NC(=O)c1cnc(C)cn1)CCCCC2` [Compound 81, N-(3-methoxy-6,7,8,9-tetrahydro-5H-benzo[7]annulen-2-yl)-5-methylpyrazine-2-carboxamide] came in with a CC50 in data set [1] of more than 30 µM. Further, in the data set with Chikungunya virus (setting [2]), the EC90 is more than 10 µM.
On to `CN(C(=O)c1ccc(C(C)(C)C)cc1)c1ccc2c(c1)CCCCC2` [Compound 28, 4-(tert-butyl)-N-methyl-N-(6,7,8,9-tetrahydro-5H-benzo[7]annulen-2-yl)benzamide], for which, in data set [1], the CC50 is more than 30 µM. Further, in the data set on Chikungunya virus (setting [3]), the EC90 is more than 10 µM.
Turning to `CCOc1cc2c(cc1NC(=O)c1ccc(C(C)(C)C)cc1)CCCCC2` [Compound 84, 4-(tert-Butyl)-N-(3-ethoxy-6,7,8,9-tetrahydro-5H-benzo[7]annulen-2-yl)benzamide], the CC50 in data set [1] is 10 µM. The EC90 in the data set on Chikungunya virus (setting [3]) came out at 5.19 µM.
`CC(C)(C)c1ccc(C(=O)Nc2cc3c(cc2OC(F)(F)F)CCCCC3)cc1` [Compound 13, 4-(tert-butyl)-N-(3-(trifluoromethoxy)-6,7,8,9-tetrahydro-5H-benzo[7]annulen-2-yl)benzamide] gave a CC50 in data set [1] of more than 25 µM. The EC90 with Chikungunya virus (setting [3]) is 13.7 µM.
`COc1cc2c(cc1NC(=O)c1ccc(OC(F)(F)F)cc1)CCCCC2` [Compound 72, N-(3-Methoxy-6,7,8,9-tetrahydro-5H-benzo[7]annulen-2-yl)-4-(trifluoromethoxy)benzamide] came in with a cytotoxic concentration (CC50) in data set [1] of more than 30 µM. Further, in the data set on Chikungunya virus (setting [3]), the EC90 worked out at 3.3 µM.
In the case of `COc1cc2c(cc1NC(=O)c1cnc(C)s1)CCCCC2` [Compound 33, N-(3-methoxy-6,7,8,9-tetrahydro-5H-benzo[7]annulen-2-yl)-2-methylthiazole-5-carboxamide], the CC50 in data set [1] was more than 30 µM. For the same compound, the EC90 in the data set with Chikungunya virus (setting [3]) was more than 30 µM.
`CC(C)(C)c1ccc(C(=O)Nc2cc3c(cc2C(F)(F)F)CCCCC3)cc1` [Compound 14, 4-(tert-butyl)-N-(3-(trifluoromethyl)-6,7,8,9-tetrahydro-5H-benzo[7]annulen-2-yl)benzamide]: in data set [1], the CC50 is more than 30 µM. In addition, the EC90 in the data set with Chikungunya virus (setting [3]) is more than 30 µM.
On to `COc1cc2c(cc1NC(=O)c1ccc(C(C)(C)C)o1)CCCCC2` [Compound 37, 5-(tert-Butyl)-N-(3-methoxy-6,7,8,9-tetrahydro-5H-benzo[7]annulen-2-yl)furan-2-carboxamide], for which, in data set [1], the CC50 is more than 30 µM. Moreover, the EC90 in the data set on Chikungunya virus (setting [3]) was 23.2 µM.
On to `COc1cc2c(cc1NC(=O)c1ccc(C(C)(C)C)cc1)CCCCN2C` [Compound 65, 4-(tert-butyl)-N-(8-methoxy-1-methyl-2,3,4,5-tetrahydro-1H-benzo[b]azepin-7-yl)benzamide], for which, in data set [1], the CC50 is more than 30 µM. Further, in the data set on Chikungunya virus (setting [3]), the EC90 was more than 30 µM.
As for `COc1c(NC(=O)c2cnc(C(C)(C)C)s2)cc2c(c1F)CCCCC2` [Compound 24, 2-(tert-Butyl)-N-(4-fluoro-3-methoxy-6,7,8,9-tetrahydro-5H-benzo[7]annulen-2-yl)thiazole-5-carboxamide], the CC50 in data set [1] is more than 30 µM. Besides, the EC90 in the data set on Chikungunya virus (setting [3]) is more than 10 µM.
In the case of `COc1cc2c(cc1NC(=O)c1ccc(C(C)(C)CO)cc1)CCCCC2` [Compound 47], it took 96.3 µM to reach half-maximal cytotoxicity in data set [1] (CC50). Besides, in the data set with Chikungunya virus (setting [3]), the EC90 is 7.1 µM.
`COc1cc2c(cc1NC(=O)c1ccc(-c3ccccn3)cc1)CCCCC2` [Compound 67, N-(3-Methoxy-6,7,8,9-tetrahydro-5H-benzo[7]annulen-2-yl)-4-(pyridin-2-yl)benzamide]: in data set [1], the CC50 was more than 30 µM. In the data set with Chikungunya virus (setting [3]), the EC90 was more than 10 µM.
Taken in the same sequence, the figures for `COc1cc2c(cc1NC(=O)c1ccc(F)cc1)CCCCC2` [Compound 78, 4-Fluoro-N-(3-methoxy-6,7,8,9-tetrahydro-5H-benzo[7]annulen-2-yl)benzamide] were more than 30 µM and more than 10 µM.
On to `COc1cc2c(cc1NC(=O)C1CCOCC1)CCCCC2` [Compound 82, N-(3-methoxy-6,7,8,9-tetrahydro-5H-benzo[7]annulen-2-yl)tetrahydro-2H-pyran-4-carboxamide], for which the cytotoxic concentration (CC50) in data set [1] is more than 30 µM. Also, in the data set with Chikungunya virus (setting [3]), the EC90 is more than 10 µM.
Compound `CCn1nc(C(=O)Nc2cc3c(cc2OC)CCCCC3)cc1C` [Compound 31, 1-Ethyl-N-(3-methoxy-6,7,8,9-tetrahydro-5H-benzo[7]annulen-2-yl)-5-methyl-1H-pyrazole-3-carboxamide] registered a CC50 in data set [1] of more than 30 µM. The EC90 in the data set on Chikungunya virus (setting [3]) turned out to be 0.79 µM.
In turn, `COc1cc2c(cc1NC(=O)CCc1ccc(C(C)(C)C)cc1)CCCCC2` [Compound 68, 3-(4-(tert-Butyl)phenyl)-N-(3-methoxy-6,7,8,9-tetrahydro-5H-benzo[7]annulen-2-yl)propanamide] had a CC50 in data set [1] of more than 30 µM. Also, the EC90 with Chikungunya virus (setting [3]) is more than 10 µM.
In the case of `CCn1cc(C(=O)Nc2cc3c(cc2OC)CCCCC3)c(C(F)(F)F)n1` [Compound 45, 1-Ethyl-N-(3-methoxy-6,7,8,9-tetrahydro-5H-benzo[7]annulen-2-yl)-3-(trifluoromethyl)-1H-pyrazole-4-carboxamide], in data set [1], the CC50 was 34.5 µM. Also, in the data set on Chikungunya virus (setting [3]), the EC90 is 2.95 µM.
For the compound `CC(C)(C)c1ccc(C(=O)Nc2cc3c(cc2N)CCCCC3)cc1` [Compound 20, N-(3-amino-6,7,8,9-tetrahydro-5H-benzo[7]annulen-2-yl)-4-(tert-butyl)benzamide], the CC50 in data set [1] was more than 30 µM. Moreover, in the data set on Chikungunya virus (setting [3]), the EC90 is more than 30 µM.
In turn, `COc1cc2c(cc1NC(=O)c1ccc(C(F)(F)F)cc1)CCCCC2` [Compound 74, N-(3-methoxy-6,7,8,9-tetrahydro-5H-benzo[7]annulen-2-yl)-4-(trifluoromethyl)benzamide] had a CC50 in data set [1] of more than 30 µM. Besides, in the data set with Chikungunya virus (setting [3]), the EC90 is 7.4 µM.
Take `CCCOc1cc2c(cc1NC(=O)c1ccc(C(C)(C)C)cc1)CCCCC2` [Compound 86, 4-(tert-Butyl)-N-(3-propoxy-6,7,8,9-tetrahydro-5H-benzo[7]annulen-2-yl)benzamide]: the CC50 in data set [1] is more than 30 µM. Moreover, the EC90 in the data set on Chikungunya virus (setting [3]) was determined as 7 µM.
Consider `CCc1ccc(C(=O)Nc2cc3c(cc2OC)CCCCC3)cc1` [Compound 56, 4-Ethyl-N-(3-methoxy-6,7,8,9-tetrahydro-5H-benzo[7]annulen-2-yl)benzamide], for which the CC50 in data set [1] was more than 30 µM. In addition, the EC90 in the data set on Chikungunya virus (setting [3]) was more than 10 µM.
In data set [1], `COc1cc2c(cc1NC(=O)c1ccc(N(C)C)cc1)CCCCC2` [Compound 76, 4-(Dimethylamino)-N-(3-methoxy-6,7,8,9-tetrahydro-5H-benzo[7]annulen-2-yl)benzamide] showed a CC50 of more than 30 µM. Also, the EC90 with Chikungunya virus (setting [3]) is more than 10 µM.
In data set [1], `COc1cc2c(cc1NC(=O)c1ccc(C(=O)O)cc1)CCCCC2` [Compound 55] gave a CC50 of more than 30 µM. In addition, in the data set with Chikungunya virus (setting [3]), the EC90 was more than 10 µM.
The like results for `CC(C)(C)n1nc(C(=O)Nc2ccc3c(c2)CCCCC3)cc1C(F)(F)F` [Compound 27, 1-(tert-butyl)-N-(6,7,8,9-tetrahydro-5H-benzo[7]annulen-2-yl)-5-(trifluoromethyl)-1H-pyrazole-3-carboxamide] were, in that order, more than 30 µM and more than 10 µM.
`COc1cc2c(cc1NC(=O)c1cnc(C)cn1)CCCCC2` [Compound 39, N-(3-Methoxy-6,7,8,9-tetrahydro-5H-benzo[7]annulen-2-yl)-5-methylpyrazine-2-carboxamide] registered a CC50 in data set [1] of more than 30 µM. In addition, the EC90 in the data set on Chikungunya virus (setting [2]) is more than 30 µM.
For the compound `CC(C)(C)c1ncc(C(=O)Nc2ccc3c(c2)CCCCC3)s1` [Compound 25, 2-(tert-butyl)-N-(6,7,8,9-tetrahydro-5H-benzo[7]annulen-2-yl)thiazole-5-carboxamide], the CC50 in data set [1] was determined as 15.7 µM. Moreover, the EC90 with Chikungunya virus (setting [3]) is 22.6 µM.
`COc1cc2c(cc1NC(=O)Cc1ccc(C(C)(C)C)cc1)CCCCC2` [Compound 54] showed a CC50 in data set [1] of more than 30 µM. Moreover, the EC90 in the data set on Chikungunya virus (setting [3]) was found to be 42.9 µM.
Take `COc1cc2c(cc1NC(=O)c1ccc(C(C)(C)C#N)cc1)CCCCC2` [Compound 50, 4-(2-Cyanopropan-2-yl)-N-(3-methoxy-6,7,8,9-tetrahydro-5H-benzo[7]annulen-2-yl)benzamide]: the CC50 in data set [1] was 3.57 µM. Besides, in the data set with Chikungunya virus (setting [3]), the EC90 was 1.16 µM.
Compound `COc1cc2c(cc1NC(=O)c1cnc(C(C)(C)C)nc1)CCCCC2` [Compound 49, 2-(tert-Butyl)-N-(3-methoxy-6,7,8,9-tetrahydro-5H-benzo[7]annulen-2-yl)pyrimidine-5-carboxamide] gave a CC50 in data set [1] of 37.6 µM. Moreover, in the data set with Chikungunya virus (setting [3]), the EC90 was 2.99 µM.
In turn, `COc1cc2c(cc1NC(=O)c1ccc(C3(O)CCC3)cc1)CCCCC2` [Compound 66, 4-(1-Hydroxycyclobutyl)-N-(3-methoxy-6,7,8,9-tetrahydro-5H-benzo[7]annulen-2-yl)benzamide] displayed a CC50 in data set [1] of more than 30 µM. Besides, in the data set with Chikungunya virus (setting [3]), the EC90 was more than 10 µM.
In turn, `CCCc1ccc(C(=O)Nc2cc3c(cc2OC)CCCCC3)cc1` [Compound 57, N-(3-methoxy-6,7,8,9-tetrahydro-5H-benzo[7]annulen-2-yl)-4-propylbenzamide] showed a CC50 in data set [1] of more than 30 µM. In the data set on Chikungunya virus (setting [3]), the EC90 is more than 10 µM.
The like results for `COc1cc2c(cc1NC(=O)c1ccc(Cl)cc1I)CCCCC2` [Compound 75, 4-Chloro-2-iodo-N-(3-methoxy-6,7,8,9-tetrahydro-5H-benzo[7]annulen-2-yl)benzamide] were, in that order, more than 30 µM and 6.1 µM.
The compound `CC(C)(C)c1ccc(C(=O)Nc2ccc3c(c2)CCCCC3)cc1` [Compound 19, 4-(tert-Butyl)-N-(6,7,8,9-tetrahydro-5H-benzo[7]annulen-2-yl)benzamide] yielded a CC50 in data set [1] of 79.1 µM. For the same compound, in the data set with Chikungunya virus (setting [3]), the EC90 was found to be 0.7 µM.
`COc1cc2c(cc1NC(=O)c1ccc(C(C)(C)C)c(F)c1)CCCCC2` [Compound 53, 4-(tert-Butyl)-3-fluoro-N-(3-methoxy-6,7,8,9-tetrahydro-5H-benzo[7]annulen-2-yl)benzamide] registered a CC50 in data set [1] of more than 30 µM. The EC90 in the data set on Chikungunya virus (setting [3]) was 2.24 µM.

By CC50 is commonly meant the concentration that lowers cell viability or growth by half. A lower CC50 goes with greater toxicity to the cells.
